# Data as given in patent US20240409585A1, “MACROCYCLIC IMMUNOMODULATORS” (priority 2021, published 2024).
# Bridge positions count the residues as written; N and C are the ends. Square brackets hold non-standard residues; d marks the D form. Peptide text beside a SMILES is read from it. * marks the point of attachment. ξ: configuration not given here. Phe(4-COOH) = N[C@@H](Cc1ccc(C(=O)O)cc1)C(=O)O; Bip = N[C@@H](Cc1ccc(-c2ccccc2)cc1)C(=O)O; Phe(3-Me) = Cc1cccc(C[C@H](N)C(=O)O)c1; Val(3-OH) = CC(C)(O)[C@H](N)C(=O)O; 4Pal = N[C@@H](Cc1ccncc1)C(=O)O; Cha = N[C@@H](CC1CCCCC1)C(=O)O; Cit = NC(=O)NCCC[C@H](N)C(=O)O; Ile(3ξ) = CCC(C)[C@H](N)C(=O)O; Thr(3ξ) = CC(O)[C@H](N)C(=O)O; Carboxymethyl = O=C(O)C*; NMeA = CN[C@@H](C)C(=O)O; Orn = NCCC[C@H](N)C(=O)O; Pra = C#CC[C@H](N)C(=O)O; Dab = NCC[C@H](N)C(=O)O; Dap = NC[C@H](N)C(=O)O; ξC = NC(CS)C(=O)O
# Target: T1, PE-labeled human PD-L1-Ig binding to Jurkat cell line over-expressing human PD-1 (Jurkat-PD-1) (Homo sapiens, UniProt Q15116)
# T1 construct: expressed in transfected cells; host or cells: Jurkat
# Assay: Jurkat-PD-1 Cell Binding High-Content Screening Assay (CBA): Method 1
# Conditions: Jurkat-hPD-1 cells, PE-labeled PD-L1-Ig 20 nM final; read-out: Jurkat HPDL1 PD1 IC50 (uM) (Method 1)
# T1 sequence (Q15116 25-288): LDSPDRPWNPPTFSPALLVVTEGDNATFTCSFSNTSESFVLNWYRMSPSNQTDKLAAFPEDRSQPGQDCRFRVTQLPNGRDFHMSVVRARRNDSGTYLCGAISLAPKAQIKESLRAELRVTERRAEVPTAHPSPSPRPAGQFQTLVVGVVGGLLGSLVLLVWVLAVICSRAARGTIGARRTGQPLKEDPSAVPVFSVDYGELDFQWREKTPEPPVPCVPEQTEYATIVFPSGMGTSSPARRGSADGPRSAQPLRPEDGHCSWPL
row,IC50 [µM],Structure (SMILES)
1,0.02,C#CC[C@H](NC(=O)[C@@H](C)NC(=O)[C@@H]1CSCC(=O)N[C@@H](Cc2ccc(OCC(=O)O)cc2)C(=O)N[C@@H](Cc2ccc(C(=O)O)cc2)C(=O)N[C@@H](CC(=O)O)C(=O)N[C@@H](Cc2c[nH]c3ccccc23)C(=O)N[C@@H](CC(C)C)C(=O)N[C@@H](Cc2ccc(-c3ccccc3)cc2)C(=O)N[C@@H](C(C)C)C(=O)N(C)[C@@H](C)C(=O)N[C@H](CC(C)C)C(=O)N[C@@H](CCN)C(=O)N[C@@H](CC2CCCCC2)C(=O)N[C@@H](C(C)(C)O)C(=O)N[C@@H](CO)C(=O)N1)C(N)=O [Compound 1940] ({CH2CO}-Y(Carboxymethyl)[Phe(4-COOH)]DWL[Bip]V[NMeA][dL][Dab][Cha][Val(3-OH)]SC[dA][Pra]-NH2; thioether N-14)
2,0.01,C#CC[C@H](NC(=O)[C@@H](C)NC(=O)[C@@H]1CSCC(=O)N[C@@H](Cc2ccc(OCC(=O)O)cc2)C(=O)N[C@@H](Cc2ccc(C(=O)O)cc2)C(=O)N[C@@H](CC(=O)O)C(=O)N[C@@H](Cc2c[nH]c3ccccc23)C(=O)N[C@@H](CC(C)C)C(=O)N[C@@H](Cc2ccc(-c3ccccc3)cc2)C(=O)N[C@@H](C(C)C)C(=O)N(C)[C@@H](C)C(=O)N[C@H](CC(C)C)C(=O)N[C@@H](CCN)C(=O)N[C@@H](CC2CCCCC2)C(=O)N[C@@H](C(C)(C)O)C(=O)N[C@@H](CO)C(=O)N1)C(=O)O [Compound 1941] ({CH2CO}-Y(Carboxymethyl)[Phe(4-COOH)]DWL[Bip]V[NMeA][dL][Dab][Cha][Val(3-OH)]SC[dA][Pra]-OH; thioether N-14)
3,0.01,C#CC[C@H](NC(=O)[C@@H](C)NC(=O)[C@@H]1CSCC(=O)N[C@@H](Cc2c[nH]cn2)C(=O)N[C@@H](Cc2ccc(OCC(=O)O)cc2)C(=O)N[C@@H](CC(=O)O)C(=O)N[C@@H](Cc2c[nH]c3ccccc23)C(=O)N[C@@H](C(C)C)C(=O)N[C@@H](Cc2ccc(-c3ccccc3)cc2)C(=O)N[C@@H](C(C)C)C(=O)N(C)[C@@H](C)C(=O)N[C@H](CC(C)C)C(=O)N[C@@H](CCN)C(=O)N[C@@H](CC2CCCCC2)C(=O)N[C@@H](C(C)(C)O)C(=O)N[C@@H](CO)C(=O)N1)C(N)=O [Compound 1942] ({CH2CO}-HY(Carboxymethyl)DWV[Bip]V[NMeA][dL][Dab][Cha][Val(3-OH)]SC[dA][Pra]-NH2; thioether N-14)
4,0.01,C#CC[C@H](NC(=O)[C@@H](C)NC(=O)[C@@H]1CSCC(=O)N[C@@H](Cc2c[nH]cn2)C(=O)N[C@@H](Cc2ccc(OCC(=O)O)cc2)C(=O)N[C@@H](CC(=O)O)C(=O)N[C@@H](Cc2c[nH]c3ccccc23)C(=O)N[C@@H](C(C)C)C(=O)N[C@@H](Cc2ccc(-c3ccccc3)cc2)C(=O)N[C@@H](C(C)C)C(=O)N(C)[C@@H](C)C(=O)N[C@H](CC(C)C)C(=O)N[C@@H](CCN)C(=O)N[C@@H](CC2CCCCC2)C(=O)N[C@@H](C(C)(C)O)C(=O)N[C@@H](CO)C(=O)N1)C(=O)O [Compound 1943] ({CH2CO}-HY(Carboxymethyl)DWV[Bip]V[NMeA][dL][Dab][Cha][Val(3-OH)]SC[dA][Pra]-OH; thioether N-14)
5,0.9,C#CC[C@H](NC(=O)[C@@H](C)NC(=O)[C@@H]1CSCC(=O)N[C@@H]([C@@H](C)O)C(=O)N[C@@H](Cc2ccc(OCC(=O)O)cc2)C(=O)N[C@@H](CC(=O)O)C(=O)N[C@@H](Cc2cccc(C)c2)C(=O)N[C@@H](Cc2ccc(OCC(=O)O)cc2)C(=O)N[C@@H](Cc2ccc(-c3ccccc3)cc2)C(=O)N[C@@H](Cc2ccc(OCC(=O)O)cc2)C(=O)N(C)[C@@H](C)C(=O)N[C@H](CC(C)C)C(=O)N[C@@H](CCN)C(=O)N[C@@H](CC2CCCCC2)C(=O)N[C@@H](C(C)(C)O)C(=O)N[C@@H](CCC(=O)O)C(=O)N1)C(=O)O [Compound 1944] ({CH2CO}-TY(Carboxymethyl)D[Phe(3-Me)]Y(Carboxymethyl)[Bip]Y(Carboxymethyl)[NMeA][dL][Dab][Cha][Val(3-OH)]EC[dA][Pra]-OH; thioether N-14)
6,0.93,C#CC[C@H](NC(=O)[C@@H](C)NC(=O)[C@@H]1CSCC(=O)N[C@@H]([C@@H](C)O)C(=O)N[C@@H](Cc2ccc(OCC(=O)O)cc2)C(=O)N[C@@H](CC(=O)O)C(=O)N[C@@H](Cc2cccc(C)c2)C(=O)N[C@@H](Cc2ccc(OCC(=O)O)cc2)C(=O)N[C@@H](Cc2ccc(-c3ccccc3)cc2)C(=O)N[C@@H](Cc2ccc(OCC(=O)O)cc2)C(=O)N(C)[C@@H](C)C(=O)N[C@H](CC(C)C)C(=O)N[C@@H](CCN)C(=O)N[C@@H](CC2CCCCC2)C(=O)N[C@@H](C(C)(C)O)C(=O)N[C@@H](CCC(=O)O)C(=O)N1)C(N)=O [Compound 1945] ({CH2CO}-TY(Carboxymethyl)D[Phe(3-Me)]Y(Carboxymethyl)[Bip]Y(Carboxymethyl)[NMeA][dL][Dab][Cha][Val(3-OH)]EC[dA][Pra]-NH2; thioether N-14)
7,0.43,C#CC[C@H](NC(=O)[C@@H](C)NC(=O)[C@@H]1CSCC(=O)N[C@@H]([C@@H](C)O)C(=O)N[C@@H](Cc2ccc(C(=O)O)cc2)C(=O)N[C@@H](CC(=O)O)C(=O)N[C@@H](Cc2cccc(C)c2)C(=O)N[C@@H](Cc2ccc(C(=O)O)cc2)C(=O)N[C@@H](Cc2ccc(-c3ccccc3)cc2)C(=O)N[C@@H](Cc2ccc(OCC(=O)O)cc2)C(=O)N(C)[C@@H](C)C(=O)N[C@H](CC(C)C)C(=O)N[C@@H](CCN)C(=O)N[C@@H](CC2CCCCC2)C(=O)N[C@@H](C(C)(C)O)C(=O)N[C@@H](CCC(=O)O)C(=O)N1)C(N)=O [Compound 1947] ({CH2CO}-T[Phe(4-COOH)]D[Phe(3-Me)][Phe(4-COOH)][Bip]Y(Carboxymethyl)[NMeA][dL][Dab][Cha][Val(3-OH)]EC[dA][Pra]-NH2; thioether N-14)
8,0.02,CC(C)C[C@@H]1NC(=O)[C@H](Cc2c[nH]c3ccccc23)NC(=O)[C@H](CC(=O)O)NC(=O)[C@H](Cc2ccncc2)NC(=O)[C@H](Cc2ccc(OCC(=O)O)cc2)NC(=O)CSC[C@@H](C(=O)N[C@@H](CCN)C(N)=O)NC(=O)[C@H](CCCN)NC(=O)[C@H](C(C)C)NC(=O)[C@H](CC2CCCCC2)NC(=O)[C@H](CCN)NC(=O)[C@@H](CC(C)C)NC(=O)[C@H](C)N(C)C(=O)[C@H](C(C)C)NC(=O)[C@H](Cc2ccc(-c3ccccc3)cc2)NC1=O [Compound 1948] ({CH2CO}-Y(Carboxymethyl)[4Pal]DWL[Bip]V[NMeA][dL][Dab][Cha]V[Orn]C[Dab]-NH2; thioether N-14)
9,0.02,CC(C)C[C@@H]1NC(=O)[C@H](CC(N)=O)NC(=O)[C@@H](CC(C)C)NC(=O)[C@H](C)N(C)C(=O)[C@H](CCCNC(N)=O)NC(=O)[C@H](Cc2ccc(-c3ccccc3)cc2)NC(=O)[C@H](C(C)C)NC(=O)[C@H](Cc2c[nH]c3ccccc23)NC(=O)[C@H](CC(=O)O)NC(=O)[C@H](Cc2ccc(O)cc2)NC(=O)[C@H](Cc2ccccc2)NC(=O)CSC[C@@H](C(=O)N[C@@H](C)C(=O)N[C@@H](CCN)C(=O)O)NC(=O)[C@H](CO)NC(=O)[C@H](C(C)C)NC1=O [Compound 2000] ({CH2CO}-FYDWV[Bip][Cit][NMeA][dL]NLVSCA[Dab]-OH; thioether N-14)
10,0.11,CCC(C)[C@@H]1NC(=O)[C@H](Cc2ccc(-c3ccccc3)cc2)NC(=O)[C@H](C(C)C)NC(=O)[C@H](Cc2c[nH]c3ccccc23)NC(=O)[C@H](CC(=O)O)NC(=O)[C@H](Cc2ccc(O)cc2)NC(=O)[C@H](Cc2ccncc2)NC(=O)CSC[C@@H](C(=O)N[C@@H](CC(=O)O)C(=O)N[C@@H](CCN)C(=O)O)NC(=O)[C@H](C(C)O)NC(=O)[C@H](C(C)C)NC(=O)[C@H](CC2CCCCC2)NC(=O)[C@H](CC(N)=O)NC(=O)[C@@H](CC(C)C)NC(=O)[C@H](C)N(C)C1=O (stereo partly drawn) [Compound 2001] ({CH2CO}-[4Pal]YDWV[Bip][Ile(3ξ)][NMeA][dL]N[Cha]V[Thr(3ξ)]CD[Dab]-OH; thioether N-14)
11,0.14,CCC(C)[C@@H]1NC(=O)[C@H](Cc2ccc(-c3ccccc3)cc2)NC(=O)[C@H](C(C)C)NC(=O)[C@H](Cc2c[nH]c3ccccc23)NC(=O)[C@H](CC(=O)O)NC(=O)[C@H](Cc2ccc(O)cc2)NC(=O)[C@H](CC(N)=O)NC(=O)CSC[C@@H](C(=O)N[C@@H](CC(=O)O)C(=O)N[C@@H](CCN)C(=O)O)NC(=O)[C@H](C(C)O)NC(=O)[C@H](C(C)C)NC(=O)[C@H](CC2CCCCC2)NC(=O)[C@H](CC(N)=O)NC(=O)[C@@H](CC(C)C)NC(=O)[C@H](C)N(C)C1=O (stereo partly drawn) [Compound 2002] ({CH2CO}-NYDWV[Bip][Ile(3ξ)][NMeA][dL]N[Cha]V[Thr(3ξ)]CD[Dab]-OH; thioether N-14)
12,0.02,CCC(C)[C@@H]1NC(=O)[C@H](Cc2ccc(-c3ccccc3)cc2)NC(=O)[C@H](C(C)C)NC(=O)[C@H](Cc2c[nH]c3ccccc23)NC(=O)[C@H](CC(=O)O)NC(=O)[C@H](Cc2ccc(O)cc2)NC(=O)[C@H](CC(N)=O)NC(=O)CSCC(C(=O)NCC(=O)N[C@@H](CCN)C(=O)O)NC(=O)[C@H](C(C)O)NC(=O)[C@H](C(C)C)NC(=O)[C@H](CC2CCCCC2)NC(=O)[C@H](CC(N)=O)NC(=O)[C@@H](CC(C)C)NC(=O)[C@H](C)N(C)C1=O (stereo partly drawn) [Compound 2003] ({CH2CO}-NYDWV[Bip][Ile(3ξ)][NMeA][dL]N[Cha]V[Thr(3ξ)][ξC]G[Dab]-OH; thioether N-14)
13,0.02,CC(C)C[C@@H]1NC(=O)[C@H](CC(N)=O)NC(=O)[C@@H](CC(C)C)NC(=O)[C@H](C)N(C)C(=O)[C@H](CCCNC(N)=O)NC(=O)[C@H](Cc2ccc(-c3ccccc3)cc2)NC(=O)[C@H](C(C)C)NC(=O)[C@H](Cc2c[nH]c3ccccc23)NC(=O)[C@H](CC(=O)O)NC(=O)[C@H](Cc2ccc(O)cc2)NC(=O)[C@H](Cc2ccccc2)NC(=O)CSC[C@@H](C(=O)N[C@@H](C)C(=O)N[C@@H](CN)C(=O)O)NC(=O)[C@H](CO)NC(=O)[C@H](C(C)C)NC1=O [Compound 2004] ({CH2CO}-FYDWV[Bip][Cit][NMeA][dL]NLVSCA[Dap]-OH; thioether N-14)
